Measured values reported in US5296496A, “2-saccharinylmethyl phosphates, phosphonates and phosphinates useful as proteolytic enzyme inhibitors and compositions and method of use thereof” (Sterling Winthrop Inc., priority 1992, dated 1994).

Target: T1, human leukocyte elastase (HLE) (Homo sapiens, UniProt P08246)
T1 sequence (P08246 30-267): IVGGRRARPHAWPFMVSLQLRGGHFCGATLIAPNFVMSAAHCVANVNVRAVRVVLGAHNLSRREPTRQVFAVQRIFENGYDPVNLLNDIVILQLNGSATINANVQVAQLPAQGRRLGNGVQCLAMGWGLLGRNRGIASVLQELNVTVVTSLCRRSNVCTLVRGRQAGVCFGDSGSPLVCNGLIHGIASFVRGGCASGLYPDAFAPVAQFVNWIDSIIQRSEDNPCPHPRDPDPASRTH
Experiment: Inhibition constant Ki* of human leukocyte elastase (HLE), calculated as koff/kon
Format: biochemical
Conditions: unit inferred
Method: Thus, instead of measuring a Ki, a Ki * is calculated which is defined as the ratio of the koff /kon, the rate of reactivation of the enzyme to the rate of inactivation of the enzyme. The values of koff and kon are measured and Ki * is then calculated.
The rate of inactivation, kon, of enzymatic activity was determined for the compounds tested by measuring the enzyme activity of an aliquot of the respective enzyme as a function of time after addition of the test compound. […] The rate of inactivation is then equal to [formula] where [I] is the concentration of the inhibiting compound.
The reactivation constant, koff, is similarly determined, and the inhibition constant, Ki *, is then calculated as

In the case of CCOP(=O)(OCC)OCN1C(=O)c2c(C(C)C)cc(OC)cc2S1(=O)=O [Example 13], the Ki is reported as 0.035 nM.
